This is an account of results in patent publication EP4001279A1, “NOVEL SPIROPYRROLIDINE DERIVED ANTIVIRAL AGENTS” (Enanta Pharmaceuticals, Inc., priority 2020, dated 2022).

For this test, the system named is 229E human corona virus (hCoV). The test can be described thus: 229E live virus assay (CPE, ATPlite readout in MRC-5 cells). It is filed as cell-based, hCoV-229E. The following applies: Human coronavirus 229E, MRC5, hCoV-229E live virus, MOI 0.05, ATPlite readout, run in duplicate.

One may read the EC50 as the midpoint of the concentration-response curve. Higher therefore signals a need for much substance. Turning to `CC(=O)C[C@@H](C(=O)N1C[C@]2(C[C@H]1C#N)C(=O)Nc1ccccc12)N(C)C(=O)c1cc2c(F)cc(F)cc2[nH]1` [Example 442], the EC50 is less than 100 nM. Take `CN(C(=O)c1cc2c(F)cc(F)cc2[nH]1)[C@@H](CC(C)(C)O)C(=O)N1C[C@]2(C[C@H]1C#N)C(=O)Nc1ccccc12` [Example 443]: the EC50 fell in the range of 100 to 1000 nM. Consider `CN(C(=O)c1cc2c(F)cc(F)c(F)c2[nH]1)[C@@H](CC(C)(C)O)C(=O)N1C[C@]2(C[C@H]1C#N)C(=O)Nc1ccccc12` [Example 444], for which the EC50 was in the range of 100 to 1000 nM. The compound `CC(C)(F)C[C@H](NC(=O)COc1ccc(F)cc1F)C(=O)N1C[C@]2(C[C@H]1C#N)C(=O)Nc1ccc(Cl)cc12` [Example 445] returned an EC50 of 100 to 1000 nM. `CC(C)(F)C[C@H](NC(=O)c1cc2ccccn2n1)C(=O)N1C[C@]2(C[C@H]1C#N)C(=O)Nc1ccc(Cl)cc12` [Example 446] showed an EC50 of 100 to 1000 nM. For the compound `CC(C)(F)C[C@H](NC(=O)c1cccc(OC(F)(F)F)c1)C(=O)N1C[C@]2(C[C@H]1C#N)C(=O)Nc1ccc(Cl)cc12` [Example 447], the EC50 lay in the range of 100 to 1000 nM.

As to `CC(C)(C)C[C@H](NC(=O)c1cc2c(F)cc(F)cc2[nH]1)C(=O)N1C[C@]2(C[C@H]1C#N)C(=O)Nc1ccc(Cl)cc12` [Example 448], the EC50 is less than 100 nM.

`CC(C)(F)C[C@H](NC(=O)c1ccc(F)cc1F)C(=O)N1C[C@]2(C[C@H]1C#N)C(=O)Nc1ccc(Cl)cc12` [Example 449] yielded an EC50 of 100 to 1000 nM. On to `CC(C)(C)C[C@H](NC(=O)c1cc2c(Cl)cccc2[nH]1)C(=O)N1C[C@]2(C[C@H]1C#N)C(=O)Nc1ccc(Cl)cc12` [Example 450], for which the concentration for a half-maximal effect (EC50) is less than 100 nM. `N#C[C@@H]1C[C@@]2(CN1C(=O)[C@H](Cc1ccccc1F)NC(=O)c1cc3c(F)cc(F)cc3[nH]1)C(=O)Nc1ccc(Cl)cc12` [Example 451] registered an EC50 of 100 to 1000 nM. For the compound `N#C[C@@H]1C[C@@]2(CN1C(=O)[C@H](Cc1ccc(F)cc1)NC(=O)c1cc3c(F)cc(F)cc3[nH]1)C(=O)Nc1ccc(Cl)cc12` [Example 452], the EC50 was 100 to 1000 nM. In the case of `[2H]C([2H])([2H])N(C(=O)c1cc2c(F)cc(F)cc2[nH]1)[C@@H](CC(C)(C)F)C(=O)N1C[C@]2(C[C@H]1C#N)C(=O)Nc1ccc(Cl)cc12` [Example 454, N-((S)-1-((3R,5'S)-5-chloro-5'-cyano-2-oxospiro[indoline-3,3'-pyrrolidin]-1'-yl)-4-fluoro-4-methyl-1-oxopentan-2-yl)-4,6-difluoro-N-(methyl-d3)-1H-indole-2-carboxamide] it was less than 100 nM; in that of `CN(C(=O)c1cc2c(F)cc(F)cc2[nH]1)[C@@H](CC(C)(C)F)C(=O)N1C[C@]2(C[C@H]1C#N)C(=O)Nc1ccc(Cl)cc12` [Example 455], less than 100 nM. For `[2H]C([2H])([2H])N(C(=O)c1cc2c(F)cc(F)cc2[nH]1)[C@@H](CC(C)(C)F)C(=O)N1C[C@]2(C[C@H]1C#N)C(=O)Nc1cc(C(F)(F)F)ccc12` [Example 472, N-((S)-1-((3R,5'S)-5'-cyano-2-oxo-6-(trifluoromethyl)spiro[indoline-3,3'-pyrrolidin]-1-yl)-4-fluoro-4-methyl-1-oxopentan-2-yl)-4,6-difluoro-N-(methyl-d3)-1H-indole-2-carboxamide] the value was less than 100 nM; for `CN(C(=O)C1(c2ccncc2)CC1)[C@@H](CC(C)(C)F)C(=O)N1C[C@]2(C[C@H]1C#N)C(=O)Nc1ccc(Cl)cc12` [Example 473, N-((S)-1-((3R,5'S)-5-chloro-5'-cyano-2-oxospiro[indoline-3,3'-pyrrolidin]-1'-yl)-4-fluoro-4-methyl-1-oxopentan-2-yl)-N-methyl-1-(pyridin-4-yl)cyclopropane-1-carboxamide], 100 to 1000 nM. Compound `[2H]C([2H])([2H])N(C(=O)Cc1ccncc1)[C@@H](CC(C)(C)F)C(=O)N1C[C@]2(C[C@H]1C#N)C(=O)Nc1ccc(Cl)cc12` [Example 474] showed an EC50 of 100 to 1000 nM. Consider `[2H]C([2H])([2H])N(C(=O)C1(c2ccncc2)CC1)[C@@H](CC(C)(C)F)C(=O)N1C[C@]2(C[C@H]1C#N)C(=O)Nc1ccc(Cl)cc12` [Example 475], for which the EC50 fell in the range of 100 to 1000 nM.

For the compound `CN(C(=O)Cc1cccnc1)[C@@H](CC(C)(C)F)C(=O)N1C[C@]2(C[C@H]1C#N)C(=O)Nc1ccc(Cl)cc12` [Example 476], the concentration for a half-maximal effect (EC50) is 100 to 1000 nM.

`CN(C(=O)Cc1ccncc1)[C@@H](CC(C)(C)F)C(=O)N1C[C@]2(C[C@H]1C#N)C(=O)Nc1ccc(Cl)cc12` [Example 477] yielded an EC50 of 100 to 1000 nM. For `CN(C(=O)C1(c2ccccn2)CC1)[C@@H](CC(C)(C)F)C(=O)N1C[C@]2(C[C@H]1C#N)C(=O)Nc1ccc(Cl)cc12` [Example 478] the value was 100 to 1000 nM; for `CN(C(=O)C1(c2cccnc2)CC1)[C@@H](CC(C)(C)F)C(=O)N1C[C@]2(C[C@H]1C#N)C(=O)Nc1ccc(Cl)cc12` [Example 479], 100 to 1000 nM; for `CN(C(=O)C(F)(F)c1ccncc1)[C@@H](CC(C)(C)F)C(=O)N1C[C@]2(C[C@H]1C#N)C(=O)Nc1ccc(Cl)cc12` [Example 480], less than 100 nM. The compound `CN(C(=O)C(F)(F)c1ccccn1)[C@@H](CC(C)(C)F)C(=O)N1C[C@]2(C[C@H]1C#N)C(=O)Nc1ccc(Cl)cc12` [Example 481] showed an EC50 of 100 to 1000 nM. Take `CN(C(=O)C(F)(F)c1cccnc1)[C@@H](CC(C)(C)F)C(=O)N1C[C@]2(C[C@H]1C#N)C(=O)Nc1ccc(Cl)cc12` [Example 482]: the EC50 was less than 100 nM. Compound `CN(C(=O)Cc1ccccn1)[C@@H](CC(C)(C)F)C(=O)N1C[C@]2(C[C@H]1C#N)C(=O)Nc1ccc(Cl)cc12` [Example 483] yielded an EC50 of 100 to 1000 nM. For `CN(C(=O)Cc1cnccn1)[C@@H](CC(C)(C)F)C(=O)N1C[C@]2(C[C@H]1C#N)C(=O)Nc1ccc(Cl)cc12` [Example 484] the value was 100 to 1000 nM. For `CN(C(=O)Cc1cccc(C(F)(F)F)n1)[C@@H](CC(C)(C)F)C(=O)N1C[C@]2(C[C@H]1C#N)C(=O)Nc1ccc(Cl)cc12` [Example 485] the value was 100 to 1000 nM; for `Cc1cccc(C(F)(F)C(=O)N(C)[C@@H](CC(C)(C)F)C(=O)N2C[C@]3(C[C@H]2C#N)C(=O)Nc2ccc(Cl)cc23)n1` [Example 486], 100 to 1000 nM. Regarding `Cc1cccc(CC(=O)N(C)[C@@H](CC(C)(C)F)C(=O)N2C[C@]3(C[C@H]2C#N)C(=O)Nc2ccc(Cl)cc23)n1` [Example 487], the EC50 was 100 to 1000 nM. Regarding `N#C[C@@H]1C[C@@]2(CN1C(=O)[C@H](CC1CC1)NC(=O)OCc1c(F)cccc1F)C(=O)Nc1ccc(Cl)cc12` [Example 492, 2,6-difluorobenzyl ((S)-1-((3R,5'S)-5-chloro-5'-cyano-2-oxospiro[indoline-3,3'-pyrrolidin]-1'-yl)-3-cyclopropyl-1-oxopropan-2-yl)carbamate], the half-maximal effective concentration (EC50) was in the range of 100 to 1000 nM. In the case of `N#C[C@@H]1C[C@@]2(CN1C(=O)[C@H](CC1CC1)NC(=O)OCc1ccc(F)cc1F)C(=O)Nc1ccc(Cl)cc12` [Example 493] it was 100 to 1000 nM; in that of `C[C@@H](OC(=O)N[C@@H](CC(C)(C)C)C(=O)N1C[C@]2(C[C@H]1C#N)C(=O)Nc1ccc(Cl)cc12)c1ccc(F)cc1` [Example 495], 100 to 1000 nM; in that of `CC(C)(C)C[C@H](NC(=O)OC(C)(C)c1ccc(F)cc1)C(=O)N1C[C@]2(C[C@H]1C#N)C(=O)Nc1ccc(Cl)cc12` [Example 496], greater than 1000 nM. In the case of `CC(C)C[C@@H](C(=O)N1C[C@]2(C[C@H]1C(=O)O)C(=O)Nc1ccc(Cl)cc12)N(C)C(=O)c1cc2c(F)cc(F)cc2[nH]1` [Example 497, (3R,5'S)-5-chloro-1'-(N-(4,6-difluoro-1H-indole-2-carbonyl)-N-methyl-L-leucyl)-2-oxospiro[indoline-3,3'-pyrrolidine]-5'-carboxylic acid] it was greater than 1000 nM; in that of `C=C(C)c1ccc2c(c1)[C@@]1(C[C@@H](C#N)N(C(=O)[C@H](CC(C)C)N(C)C(=O)c3cc4c(F)cc(F)cc4[nH]3)C1)C(=O)N2` [Example 498, N-((S)-1-((3R,5'S)-5'-cyano-2-oxo-5-(prop-1-en-2-yl)spiro[indoline-3,3'-pyrrolidin]-1'-yl)-4-methyl-1-oxopentan-2-yl)-4,6-difluoro-N-methyl-1H-indole-2-carboxamide], less than 100 nM.

Take `CC(=O)c1ccc2c(c1)[C@@]1(C[C@@H](C#N)N(C(=O)[C@H](CC(C)C)N(C)C(=O)c3cc4c(F)cc(F)cc4[nH]3)C1)C(=O)N2` [Example 499, N-((S)-1-((3R,5'S)-5-acetyl-5'-cyano-2-oxospiro[indoline-3,3'-pyrrolidin]-1'-yl)-4-methyl-1-oxopentan-2-yl)-4,6-difluoro-N-methyl-1H-indole-2-carboxamide]: the EC50 is less than 100 nM.

Regarding `CC(C)C[C@@H](C(=O)N1C[C@]2(C[C@H]1C#N)C(=O)Nc1ccc(S(C)(=O)=O)cc12)N(C)C(=O)c1cc2c(F)cc(F)cc2[nH]1` [Example 500, N-((S)-1-((3R,5'S)-5'-cyano-5-(methylsulfonyl)-2-oxospiro[indoline-3,3'-pyrrolidin]-1'-yl)-4-methyl-1-oxopentan-2-yl)-4,6-difluoro-N-methyl-1H-indole-2-carboxamide], the EC50 is less than 100 nM. Turning to `COC(=O)c1ccc2c(c1)[C@@]1(C[C@@H](C#N)N(C(=O)[C@H](CC(C)C)N(C)C(=O)c3cc4c(F)cc(F)cc4[nH]3)C1)C(=O)N2` [Example 501, methyl (3R,5'S)-5'-cyano-1'-(N-(4,6-difluoro-1H-indole-2-carbonyl)-N-methyl-L-leucyl)-2-oxospiro[indoline-3,3'-pyrrolidine]-5-carboxylate], the concentration for a half-maximal effect (EC50) is less than 100 nM. For `CC(C)C[C@@H](C(=O)N1C[C@]2(C[C@H]1C#N)C(=O)Nc1ccc(C(=O)N3CCOCC3)cc12)N(C)C(=O)c1cc2c(F)cc(F)cc2[nH]1` [Example 502, N-((S)-1-((3R,5'S)-5'-cyano-5-(morpholine-4-carbonyl)-2-oxospiro[indoline-3,3'-pyrrolidin]-1'-yl)-4-methyl-1-oxopentan-2-yl)-4,6-difluoro-N-methyl-1H-indole-2-carboxamide] the value was less than 100 nM.
